The compounds below were run on apolipoprotein B (assay: Apolipoprotein B (apo B) inhibition test in cultured human liver cells (Hepg2-cells)). Conditions: concentration of the drug needed to reduce apoB secretion to 50% of the control, overnight at 37° C.
Format: cell-based
Method: Cultured human liver cells (Hepg2-cells), which synthesize and secrete low-density lipoproteins, were incubated overnight at 37° C. in a liquid medium containing radioactively labelled leucine. Thus radioactively labelled leucine was incorporated into the apolipoprotein B. The liquid medium was decanted and the apolipoprotein B was isolated by means of a double immunoprecipitation, i.e. first an apolipoprotein B-specific antibody (antibody1) was added to the liquid medium and subsequently a second antibody (antibody2) was added which binds specifically to the apoB-antibody1 -complex. The thus formed apoB-antibody1 -antibody2 complex precipitated and was isolated by centrifuge. Quantification of the amount of apolipoprotein B synthesized during the night resulted from measuring the radioactivity of the isolated complex. To measure the inhibiting activity of the test compound, that test compound was added to the liquid medium at different concentrations and the concentration of apolipoprotein B synthesized in the presence of a test compound (concentration apoB(after)) was compared to the concentration of apolipoprotein B which was synthesized in the absence of the test compound (concentration apoB(control)). For each experiment the inhibition of apolipoprotein-B formation was expressed as
% inhibition=100×(1-concentration of apoB(after)/concentration
When more experiments were carried out for the same concentration, the median value of the inhibition calculated for these experiments was calculated. IC50 -values (concentration of the drug needed to reduce apoB secretion to 50% of the control) were also computed.
With `CCC(C)n1ncn(-c2ccc(N3CCN(c4ccc(OC[C@@H]5CO[C@@](CSc6ncnn6C(C)C)(c6ccc(Cl)cc6)O5)cc4)CC3)cc2)c1=O` (relative stereo) [Compound 82] the IC50 was 31 nM.
For `CC(C)Cn1ncn(-c2ccc(N3CCN(c4ccc(OC[C@@H]5CO[C@@](CSc6nncn6C)(c6ccc(Cl)cc6)O5)cc4)CC3)cc2)c1=O` (relative stereo) [Compound 23], the IC50 was 140 nM.
In the case of `CCC(C)n1ncn(-c2ccc(N3CCN(c4ccc(OC[C@H]5CO[C@](CSc6ncnn6C)(c6ccc(F)cc6F)O5)cc4)CC3)cc2)c1=O` (relative stereo) [Compound 62], the IC50 is reported as 190 nM.
In the case of `CCC(C)n1ncn(-c2ccc(N3CCN(c4ccc(OC[C@@H]5CO[C@@](CSc6ncn(C(C)C)n6)(c6ccc(Cl)cc6)O5)cc4)CC3)cc2)c1=O` (relative stereo) [Compound 112, (±)-cis-4-[4-[4-[4-[[2-(4-chlorophenyl)-2-[[[1-(1-methylethyl)-1H-1,2,4-triazol-3-yl]thio]methyl]-1,3-dioxolan-4-yl]methoxy]phenyl]-1-piperazinyl]phenyl]-2,4-dihydro-2-(1-methylpropyl)-3H-1,2,4-triazol-3-one], the IC50 is reported as 980 nM.
`CCCn1nc(CC)nc1SC[C@]1(c2ccc(Cl)cc2)OC[C@H](COc2ccc(N3CCN(c4ccc(-n5cnn(C(C)CC)c5=O)cc4)CC3)cc2)O1` (relative stereo) [Compound 78] showed an IC50 of 53 nM.
For `Cn1cnnc1SC[C@@]1(c2ccc(Cl)cc2)OC[C@@H](COc2ccc(N3CCN(c4ccc(-n5ncn(C6CCCC6)c5=O)cc4)CC3)cc2)O1` (relative stereo) [Compound 6], the IC50 was 120 nM.
With `CCC(CC)n1ccn(-c2ccc(N3CCN(c4ccc(OC[C@H]5CO[C@](CSc6nncn6C)(c6ccc(Cl)cc6)O5)cc4)CC3)cc2)c1=O` (relative stereo) [Compound 122] the IC50 was 88 nM.
`CCC(C)n1cnn(-c2ccc(N3CCN(c4ccc(OC[C@H]5CO[C@](CSc6ncn[nH]6)(c6ccc(Cl)cc6)O5)cc4)CC3)cc2)c1=O` (relative stereo) [Compound 83] gave an IC50 of 15 nM.
`CC(C)n1cnn(-c2ccc(N3CCN(c4ccc(OC[C@@H]5CO[C@@](CSc6nncn6C)(c6ccc(Cl)cc6)O5)cc4)CC3)cc2)c1=O` (relative stereo) [Compound 1] was tested, and the IC50 was 92 nM.
Work on `CC(C)Cn1cnn(-c2ccc(N3CCN(c4ccc(OC[C@@H]5CO[C@@](CSc6nncn6C)(c6ccc(F)cc6)O5)cc4)CC3)cc2)c1=O` (relative stereo) [Compound 5] yielded an IC50 of 200 nM.
Work on `CC[C@@H](C)n1ncn(-c2ccc(N3CCN(c4ccc(OC[C@@H]5CO[C@@](CSc6nncn6C)(c6ccc(Cl)cc6)O5)cc4)CC3)cc2)c1=O` [Compound 40] yielded an IC50 of 23 nM.
`CCC(CC)n1ccn(-c2ccc(N3CCN(c4ccc(OC[C@H]5CO[C@](CSc6nncn6C)(c6ccc(F)cc6)O5)cc4)CC3)cc2)c1=O` (relative stereo) [Compound 130] showed an IC50 of 140 nM.
With `CCC(C)n1cnn(-c2ccc(N3CCN(c4ccc(OC[C@@H]5CO[C@@](CSc6nncn6C)(c6ccc(F)cc6)O5)cc4)CC3)cc2)c1=O` (relative stereo) [Compound 9] the IC50 was 110 nM.
With `CCC(C)N1CCN(c2ccc(N3CCN(c4ccc(OC[C@H]5CO[C@](CSc6nncn6C)(c6ccc(Cl)cc6)O5)cc4)CC3)cc2)C1=O` (relative stereo) [Compound 94] the IC50 was 190 nM.
Compound `CCC(C)n1ncn(-c2ccc(N3CCN(c4ccc(OC[C@H]5CO[C@](CSc6nc(C)co6)(c6ccc(Cl)cc6)O5)cc4)CC3)cc2)c1=O` (relative stereo) [Compound 107] has an IC50 of 45 nM.

From patent publication US5929075A, “Apolipoprotein-B synthesis inhibitors” (Janssen Pharmaceutica, N.V., priority 1994, dated 1999)
